Data set [1] concerns the target benzodiazepine binding site on GABAA receptors. Nature of the data set: In vitro inhibition of 3H-flunitrazepam (3H-FNM) binding. Set-up: species or system rat. The conditions noted are these: cerebral cortex membranes from male Wistar rats; 3H-FNM 1 nM; 40 min at 2° C. On the procedure:
In Vitro Inhibition of […] (3H-FNM) Binding
The GABA recognition site and the benzodiazepine modulatory unit can selectively be labelled with ^3H-flunitrazepam.
Preparations are performed at 0-4° C. unless otherwise indicated. Cerebral cortex from male Wistar rats (150-200 g) is homogenised for 5-10 sec in 20 ml Tris-HCl (30 mM, pH 7.4) using an Ultra-Turrax homogeniser. The suspension is centrifuged at 27,000×g for 15 min and the pellet is washed three times with buffer (centrifuged at 27,000×g for 10 min). The washed pellet is homogenized in 20 ml of buffer and incubated on a water bath (37° C.) for 30 min to remove endogenous GABA and then centrifuged for 10 min at 27,000×g. The pellet is then homogenized in buffer and centrifuged for 10 min at 27,000×g. The final pellet is resuspended in 30 ml buffer and the preparation is frozen and stored at −20° C.
The membrane preparation is thawed and centrifuged at 2° C. for 10 min at 27,000×g. The pellet is washed twice with 20 ml 50 mM Tris-citrate, pH 7.1 using an Ultra-Turrax homogeniser and centrifuged for 10 min at 27,000×g. The final pellet is resuspended in 50 mM Tris-citrate, pH 7.1 (500 ml buffer per g of original tissue), and then used for binding assays. Aliquots of 0.5 ml tissue are added to 25 μl of test solution and 25 μl of ^3H-FNM (1 nM, final concentration), mixed and incubated for 40 min at 2° C. Non-specific binding is determined using Clonazepam (1 μM, final concentration). After incubation the samples are added 5 ml of ice-cold buffer and poured directly onto Whatman GF/C glass fibre filters under suction and immediately washed with 5 ml ice-cold buffer. The amount of radioactivity on the filters is determined by conventional liquid scintillation counting. Specific binding is total binding minus non-specific binding.
25-75% inhibition of specific binding must be obtained, before calculation of an IC50.
The test value will be given as IC50 (the concentration (μM) of the test substance which inhibits the specific binding of ^3H-FNM by 50%).
Co is specific binding in control assays, and […]

The compound `O=C(c1cn(-c2cccc(-c3ccccc3)c2)cn1)n1cccn1` [Compound 178, (1-Biphenyl-3-yl-1H-imidazol-4-yl)-pyrazol-1-yl-methanone] displayed a melting point of 124 to 127 °C. In addition, the IC50 in data set [1] was determined as 5.9 nM.

In data set [1], `COc1ccc(F)cc1-c1cccc(-n2cnc(C(=O)c3ccccn3)c2)c1` [Compound 14, [1-(5′-Fluoro-2′-methoxy-biphenyl-3-yl)-1H-imidazol-4-yl]-pyridin-2-yl-methanone] yielded an IC50 of 2.7 nM.

In the case of `O=C(c1ccccc1)c1cn(-c2cccc(-c3ccccc3)c2)cn1` [Compound 8, (1-Biphenyl-3-yl-1H-imidazol-4-yl)-phenyl-methanone], the IC50 in data set [1] worked out at 36 nM.

The record behind these values is patent US8030339B2, “Imidazole derivatives for the treatment of anxiety and related diseases” (Neurosearch A/S, priority 2005, dated 2011).
